These results are taken from patent US20070021509A1, “Phosphate transport inhibitors” (priority 2001, published 2007).

A value given as a limit tells only on which side of the number the result lay.

The experiment deals with phosphate uptake by rabbit intestinal Brush Border Membrane Vesicles (BBMV). Briefly: 33PO4 uptake in rabbit intestinal BBMV (HTS), phosphate transporter inhibition in vitro. Format: biochemical. The note with it: Table 2, phosphate uptake, read-out: IC50. As for the experimental part:
The following example outlines the procedures required for in vitro measurement of the inhibition of phosphate uptake by rabbit intestinal Brush Border Membrane Vesicles (BBMV).
Rabbit Intestinal Brush Border Membrane Vesicles (BBMV) were isolated from mucosal scrapings of the upper small intestine (duodenum) of male New Zealand White rabbits. The scrapings were divided into 2 g aliquots in cryopreservation vials, frozen in liquid nitrogen, and stored at −80° C.
The following procedure was performed for each 2 g sample of BBMV mucosal scraping. Buffer volumes and container sizes were adjusted appropriately for the number of 2 g samples used. The entire preparation was performed on ice, unless otherwise stated.
Mucosal scrapings (2 g per tube) were thawed in a 37° C. water bath for 3 minutes and then placed on ice. The scrapings were suspended with a total of 7.5 ml of 300 MET, and transferred to a 250 mL Corning tube on ice. To the suspension was added 30 mL cold (4° C.) deionized water (dH20). The suspension was homogenized with a tissue homogenizer (Polytron) on high speed for 2 minutes. A stir bar and MgCl2 (81.3 mg) was added. The suspension was mixed well by inverting the closed tube. The suspension was stirred on ice, ensuring that a good vortex is achieved with the stir bar, for 40 minutes. The suspension was transferred to a chilled centrifuge tube and spun at 4000×g for 15 minutes. The supernatant was transferred to a new chilled centrifuge tube and spun at 32000×g for 30 minutes. The supernatant was discarded and the pellet was re-suspended with 34 mL cold 60 MET. The suspension was homogenized with a Dounce homogenizer with 8 strokes. The suspension was transferred to a fresh 250 mL Corning tube. A stir bar and 69.1 mg MgCl2 were added. The suspension was stirred well on ice for 10 minutes. The suspension was transferred to a chilled centrifuge tube and spun at 4000×g for 15 minutes. The supernatant was transferred to a new chilled centrifuge tube and spun at 32000×g for 30 minutes. The supernatant was discarded. At this stage, the preparation could be continued or this pellet (P4) could be frozen in liquid nitrogen and stored at −80° C. When needed, this pellet could be allowed to thaw at room temperature for 5 minutes. Continuing the preparation, the pellet was re-suspended with 34 mL cold 280 MH. The suspension was homogenized in a Dounce homogenize with 8 strokes. The suspension was transferred to a new chilled centrifuge tube and spun at 32000×g for 30 minutes. The supernatant was discarded. To the pellet was added 500 μL 280 MH and the pellet was re-suspended very carefully with a 1 mL tuberculin syringe with a 25-gauge needle with care not to create bubbles. Once the entire pellet was suspended, the suspension was transferred to a chilled 1.5 mL microfuge tube. The suspension was evenly dispersed by bringing the suspension up into the syringe through the 25-gauge needle, and back out again 8 times with care not to create bubbles. The total protein concentration was determined by performing a Bradford Protein Assay. Using that value, the BBMV were diluted with 280 MH to reach approximately 0.5-2.0 mg/mL. The solution was used as soon as possible for uptake studies.
The following experiment was performed using a Beckman Multimek 96-tip robotic pipettor. The following outlines the preparation required to screen one 96-well plate of compounds. However, multiple plates could be screened in one experiment.
To the “Uptake Buffers” was added ^33PO4 to reach 200,000 CPM/19 μL. The buffer solutions were stored at room temperature. The following control solutions were prepared and placed into appropriate wells of a polypropylene, 96-well V-bottom plate (“Hot Stock Plate”):
a. Maximum activity (MAX)−Na Uptake buffer+^33PO4 at 200,000 CPM/19 μL
b. Midline activity (MID)−MAX+100 μM KH2PO4, pH 7.4
c. Minimum activity (MIN)− K Uptake buffer+^33PO4 at 200,000 CPM/19 μL
What is called IC50 is the point on the concentration scale where inhibition reaches its midpoint. As to `O=C(NCc1cc(F)ccc1F)c1cc(Br)ccc1NS(=O)(=O)c1ccc(OC(F)(F)F)cc1` [Compound 66], the IC50 lay within 51 to 100 µM. The result for `Cc1ccccc1CNC(=O)c1cc(Br)ccc1NS(=O)(=O)c1ccc(OC(F)(F)F)cc1` [Compound 67] reads 51 to 100 µM; that for `O=C(Nc1ccccc1-n1cccc1)c1cc(Br)ccc1NS(=O)(=O)c1ccc(OC(F)(F)F)cc1` [Compound 68], 101 to 500 µM. The result for `O=C(NCc1cc(C(F)(F)F)cc(C(F)(F)F)c1)c1cc(Br)ccc1NS(=O)(=O)c1ccc(OC(F)(F)F)cc1` [Compound 69] reads 101 to 500 µM. As for `O=C(NCc1ccccc1F)c1cc(Br)ccc1NS(=O)(=O)c1ccc(OC(F)(F)F)cc1` [Compound 70], the IC50 fell in the range of 101 to 500 µM. In the case of `CC(C)(C)c1ccc(NC(=O)c2cc(Br)ccc2NS(=O)(=O)c2ccc(OC(F)(F)F)cc2)cc1` [Compound 71], the 50% inhibitory concentration (IC50) lay in the range of 101 to 500 µM. Turning to `O=C(Nc1cccc(Br)c1)c1cc(Br)ccc1NS(=O)(=O)c1ccc(OC(F)(F)F)cc1` [Compound 72], the IC50 was 101 to 500 µM. The result for `O=C(Nc1ccc(-c2ccccc2)cc1)c1cc(Br)ccc1NS(=O)(=O)c1ccc(OC(F)(F)F)cc1` [Compound 73] reads 101 to 500 µM. Then `O=C(Nc1ccc(Oc2ccccc2)cc1)c1cc(Br)ccc1NS(=O)(=O)c1ccc(OC(F)(F)F)cc1` [Compound 74], with 101 to 500 µM; and `O=C(NC1CCCCC1)c1cc(Br)ccc1NS(=O)(=O)c1ccc(OC(F)(F)F)cc1` [Compound 75], with 101 to 500 µM; and `O=C(NC1CCCc2ccccc21)c1cc(Br)ccc1NS(=O)(=O)c1ccc(OC(F)(F)F)cc1` (stereo not shown) [Compound 76], with 101 to 500 µM. Then `COc1ccc(CNC(=O)c2cc(Br)ccc2NS(=O)(=O)c2ccc(OC(F)(F)F)cc2)cc1` [Compound 77], with 101 to 500 µM; and `O=C(Nc1cccc(Cl)c1)c1cc(Br)ccc1NS(=O)(=O)c1ccc(OC(F)(F)F)cc1` [Compound 78], with 101 to 500 µM. Consider `O=C(Nc1ccc(Cl)cc1Cl)c1cc(Br)ccc1NS(=O)(=O)c1ccc(OC(F)(F)F)cc1` [Compound 79], for which the half-maximal inhibitory concentration (IC50) lay within 101 to 500 µM.

With `O=C(Nc1cc(Cl)ccc1Cl)c1cc(Br)ccc1NS(=O)(=O)c1ccc(OC(F)(F)F)cc1` [Compound 80], the IC50 lay within 501 to 1000 µM. For `CCCCCCCCCCc1ccc(NC(=O)c2cc(Br)ccc2NS(=O)(=O)c2ccc(OC(F)(F)F)cc2)cc1` [Compound 81], the IC50 lay within 501 to 1000 µM. As to `Cc1ccc(CNC(=O)c2cc(Br)ccc2NS(=O)(=O)c2ccc(OC(F)(F)F)cc2)cc1` [Compound 82], the IC50 lay in the range of 501 to 1000 µM. Then `Cc1c(Cl)cccc1NC(=O)c1cc(Br)ccc1NS(=O)(=O)c1ccc(OC(F)(F)F)cc1` [Compound 83], with 501 to 1000 µM; and `Cc1cc(Br)ccc1NC(=O)c1cc(Br)ccc1NS(=O)(=O)c1ccc(OC(F)(F)F)cc1` [Compound 84], with 1000 to 1500 µM. The result for `O=C(Nc1ccc(Cl)cc1Cl)c1cc(Br)ccc1NS(=O)(=O)c1ccc(Cl)cc1` [Compound 85] reads 51 to 100 µM; that for `O=C(Nc1ccccc1Cl)c1cc(Br)ccc1NS(=O)(=O)c1ccc(Cl)cc1` [Compound 86], 51 to 100 µM. For `O=C(Nc1cc(Cl)ccc1Cl)c1cc(Br)ccc1NS(=O)(=O)c1ccc(Cl)cc1` [Compound 87], the IC50 was in the range of 51 to 100 µM.

Regarding `O=C(Nc1ccccc1F)c1cc(Br)ccc1NS(=O)(=O)c1ccc(Cl)cc1` [Compound 88], the IC50 was 101 to 500 µM.

On to `COc1ccccc1NC(=O)c1cc(Br)ccc1NS(=O)(=O)c1ccc(Cl)cc1` [Compound 89], for which the IC50 was in the range of 101 to 500 µM. Then `O=C(Nc1ccccc1Br)c1cc(Br)ccc1NS(=O)(=O)c1ccc(Cl)cc1` [Compound 90], with 101 to 500 µM. The result for `O=C(Nc1cccc(Br)c1)c1cc(Br)ccc1NS(=O)(=O)c1ccc(Cl)cc1` [Compound 91] reads over 1500 µM.

With `Cc1c(Cl)cccc1NC(=O)c1cc(Br)ccc1NS(=O)(=O)c1ccc(Cl)cc1` [Compound 93], the IC50 is over 1500 µM. The result for `Cc1ccccc1NC(=O)c1cc(Br)ccc1NS(=O)(=O)c1ccc(Cl)cc1` [Compound 94] reads over 1500 µM.
